In patent US20240024372A1, “COMPOUNDS AND METHODS TO TREAT CYSTIC FIBROSIS” (City of Hope, priority 2020, published 2024):

Test system: HuBEC cells
Assay: Uptake of BODIPY-labeled exosomes by HuBEC (light microscopy)
Type: cell-based, human
Conditions: HuBEC pre-treated with 200 μM Genistein, 37° C., 30 minutes, then BODIPY-labeled MSC-derived CFZF-VPR exosomes 3 h
Protocol: FIGS. 7A-7B show exosome uptake inhibition. FIG. 7A: To study the pathway of exosome uptake, HuBEC cells were pre-treated with 200 μM of Genistein and incubated at 37° C. for 30 minutes before exosome addition, and then incubated with BODIPY-labeled exosomes at 37° C. for 3 h. FIG. 7B: Uptake was quantified by determining the percentage of BODIPY-fluorescence intensity.
Exosome labeling. Exosomal membrane was labeled with BODIPY TR ceramide, according to the manufacturer's protocol (Molecular Probes/Invitrogen Life Technologies, Carlsbad, California, USA). Briefly, 5e+10 exosomes were stained with 10 μmol/L BODIPY TR ceramide. Excess fluorescent dye was removed by using Exosome Spin Columns (Life Technologies, Carlsbad, California, USA). BODIPY-labeled exosomes were dropped on 10e+3 cells and incubated in exosome depleted medium at 37° C. and 5% CO2. Bodipy-labeled exosomes uptake was evaluated by light microscopy.
Light microscopy and imaging. Cells were cultivated fixed with BD cytofix/Cytoperm™ fixation/permeabilization Kit (Cat. No. 554715 BD bioscience, Franklin Lakes, NJ, USA) at room temperature for 20 minutes and then stained with fluorescent 488-Phalloidin (green) for actin using the manufacturer's recommendations (Molecular Probes/Invitrogen Life Technologies). Fluorescence images were collected on Zeiss LSM-700 confocal microscope. […]

O=c1c(-c2ccc(O)cc2)coc2cc(O)cc(O)c12 [genistein]
inhibition of exosome uptake (BODIPY-fluorescence intensity): inhibition of the MSC derived CFZF-VPR exosome uptake
